Like-named read-outs stand apart in the source and are kept apart here.
What was measured:
IRAK4 = biological target: T1, IRAK4 (Homo sapiens, UniProt Q9NWZ3); experiment: IRAK4 Degradation Assay, HiBiT Method; assay type: cell-based; conditions: 293T cells expressing HiBiT-tagged IRAK4, 6 hours
T1 construct: 293Tcells expressing HiBiT-tagged IRAK4 were then added into 384-well plates
T1 sequence (Q9NWZ3 1-460): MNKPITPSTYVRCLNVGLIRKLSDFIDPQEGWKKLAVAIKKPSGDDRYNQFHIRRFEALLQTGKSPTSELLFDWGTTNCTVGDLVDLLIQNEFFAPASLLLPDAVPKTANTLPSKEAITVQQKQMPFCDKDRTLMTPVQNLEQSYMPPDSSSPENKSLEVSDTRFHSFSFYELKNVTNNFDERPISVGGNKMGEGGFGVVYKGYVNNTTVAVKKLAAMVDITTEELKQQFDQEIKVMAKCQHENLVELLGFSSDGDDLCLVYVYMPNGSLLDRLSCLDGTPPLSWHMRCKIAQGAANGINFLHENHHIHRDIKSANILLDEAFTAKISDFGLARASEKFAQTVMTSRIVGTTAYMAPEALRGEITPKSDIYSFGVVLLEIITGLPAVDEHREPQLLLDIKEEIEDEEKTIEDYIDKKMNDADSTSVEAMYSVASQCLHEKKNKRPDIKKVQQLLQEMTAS
In short: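 293T cells with HiBiT knocked in at the C-terminus of endogenous IRAK4, 10,000 per well, treated 6 h at 37 °C with an 11-point half-log series ([…]), in duplicate. Remaining IRAK4 read by Nano-Glo HiBiT lytic luminescence against DMSO-only and media-only controls.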

[1] = Pharmacokinetics in Male Cynomolgus Monkeys; assay type: in vivo; conditions: cynomolgus monkey, plasma; for Vd: read-out: Vdss
Experimental: Assay 5. Pharmacokinetics in Male Cynomolgus Monkeys
The pharmacokinetic (PK) profile in plasma of two compounds of the present invention was determined in male cynomolgus monkeys following single dose IV (5 mg/kg) and PO (10 mg/kg) administration. This study was performed under non-GLP conditions, and unless otherwise stated, all analytical reagents were standard laboratory reagent grade. The study was conducted in accordance with IACUC guidelines in compliance with the Animal Welfare Act, the Guide for the Care and Use of Laboratory Animals.
Male cynomolgus monkeys, non-naïve, are acceptable species to support PK studies for compounds intended for use in humans. The animals were supplied by Hainan Jingang Laboratory Animal Co. Ltd (Nayangxintan Fucheng Town, Qiongshan District, Haikou Hainan Province, P.R. China) or another qualified source. During in-life, the animals were individually housed in stainless-steel mesh cages that are in accordance with the National Research Council “Guide for the Care and Use of Laboratory Animals”. Animals were fed twice daily with approximately 120 g of certified monkey diet. These amounts were adjusted as necessary based on food consumption of the group or an individual body weight changes of the group or an individual and/or changes in the certified diet. In addition, animals received fruit daily as nutritional enrichment and reverse osmosis (RO) water was available to all animals, ad libitum. RO water was analyzed every three months and every batch of feed was analyzed before using. Feed and water analyses records were maintained in the facility records. The room(s) were controlled and monitored for relative humidity range of 40-70% (any excursion from this range for more than 3 hours was documented as a deviation) and temperature range of 18-26° C. (any excursion from this range was documented as a deviation) with 10 to 20 air changes/hour. The room was on a 12-hour light/dark cycle except when interruptions were necessitated by study activities. Normal healthy animals weighing >2 kg and age ≥2 years old were selected for studies. The monkeys were identified by a unique skin tattoo on chest.
2-[4-[[4-[1-(2,6-dioxo-3-piperidyl)-3-methyl-2-oxo-benzimidazol-5-yl]-1-piperidyl]methyl]cyclohexyl]-7-isopropoxy-N-pyrazolo[1,5-a]pyrimidin-3-yl-imidazo[1,2-a]pyridine-6-carboxamide, as described in Example 48 (“Compound 48”), and 2-((1R,4S)-4-((4-(1-(2,6-dioxopiperidin-3-yl)-3-methyl-2-oxo-2,3-dihydro-1H-benzo[d]imidazol-5-yl)piperidin-1-yl)methyl)cyclohexyl)-N-(1-((1S,2R)-2-fluorocyclopropyl)-2-oxo-1,2-dihydropyridin-3-yl)-7-isopropoxyimidazo[1,2-a]pyridine-6-carboxamide, as described in Example 169 (“Compound 169”), were each formulated by dissolving the compound in polyethylene glycol (PEG400) (10%) with stirring, followed by the slow addition of 11.11% 2-Hydroxypropyl-beta-cyclodextrin (HPβCD) (90%) in water. Vehicle dose was PEG400 (10%) and 11.11% HP-β-CD (90%) in water. Formulations and vehicle were freshly prepared on of the day of dosing and stored at room temperature until used.
All animals were weighed prior to drug administration. The animals were divided into intravenous (IV) group and per os (PO) group for each compound tested, with 3 animals in each group. The vehicle dosing group included IV and PO groups, making a total of 6 groups of 3 animals each, for 18 animals total. The IV dose was administered by intravenous bolus injection into the cephalic or saphenous vein. The vein used for the dosing was not used for blood sample collection for the first 4 hours post dose. The PO dose was administered by nasogastric tube. The nasogastric PO doses were flushed using 3 mL of vehicle (approximately 3 times volume of nasogastric tube). […] The dosing volume was 2.5 mL/kg for the IV groups and 5 mL/kg for the PO groups. The dosing concentration was 2 mg/mL for both IV and PO groups. Feeding conditions were overnight fasting for PO group but not for IV group. […]

DC50 (IRAK4) | AUC(0-t) ([1]; 5 mg/kg IV, mean) | C0 ([1]; 5 mg/kg IV, mean) | clearance ([1]; 5 mg/kg IV, mean) | half-life ([1]; 5 mg/kg IV, mean) | Vd ([1]; 5 mg/kg IV, mean) | AUC(0-t) ([1]; 10 mg/kg PO, mean) | Cmax ([1]; 10 mg/kg PO, mean) | bioavailability ([1]; 10 mg/kg PO, mean) | AUC(0-t) ([1]; 5 mg/kg IV, mean (Table 11)) | C0 ([1]; 5 mg/kg IV, mean (Table 11)) | clearance ([1]; 5 mg/kg IV, mean (Table 11)) | half-life ([1]; 5 mg/kg IV, mean (Table 11)) | Vd ([1]; 5 mg/kg IV, mean (Table 11)) | AUC(0-t) ([1]; 10 mg/kg PO, mean (Table 12)) | Cmax ([1]; 10 mg/kg PO, mean (Table 12)) | bioavailability ([1]; 10 mg/kg PO, mean (Table 12)) | Compound
< 10 nM | 1740 ng·h/mL | 5970 ng/mL | 48.6 mL/min/kg | 2650 min | 70.3 L/kg | 84.3 ng·h/mL | 18.3 ng/mL | 2.42% | – | – | – | – | – | – | – | – | CC(C)Oc1cc2nc([C@H]3CC[C@H](CN4CCC(c5ccc6c(c5)n(C)c(=O)n6C5CCC(=O)NC5=O)CC4)CC3)cn2cc1C(=O)Nc1cnn2cccnc12 (stereo partly drawn) [Compound 48, 2-[4-[[4-[1-(2,6-dioxo-3-piperidyl)-3-methyl-2-oxo-benzimidazol-5-yl]-1-piperidyl]methyl]cyclohexyl]-7-isopropoxy-N-pyrazolo[1,5-a]pyrimidin-3-yl-imidazo[1,2-a]pyridine-6-carboxamide]
< 10 nM | – | – | – | – | – | – | – | – | 4680 ng·h/mL | 10300 ng/mL | 17 mL/min/kg | 2660 min | 32.6 L/kg | 1020 ng·h/mL | 101 ng/mL | 10.8% | CC(C)Oc1cc2nc([C@H]3CC[C@H](CN4CCC(c5ccc6c(c5)n(C)c(=O)n6C5CCC(=O)NC5=O)CC4)CC3)cn2cc1C(=O)Nc1cccn([C@H]2C[C@H]2F)c1=O (stereo partly drawn) [Compound 169, 2-((1R,4S)-4-((4-(1-(2,6-dioxopiperidin-3-yl)-3-methyl-2-oxo-2,3-dihydro-1H-benzo[d]imidazol-5-yl)piperidin-1-yl)methyl)cyclohexyl)-N-(1-((1S,2R)-2-fluorocyclopropyl)-2-oxo-1,2-dihydropyridin-3-yl)-7-isopropoxyimidazo[1,2-a]pyridine-6-carboxamide]
